The source of these data is EP4810494A1, “HPK1 DEGRADATION AGENT AND USE THEREOF IN FIELD OF MEDICINE” (Haisco Pharmaceutical Group Co., Ltd., priority 2023, dated 2025).

Structures are written as SMILES. Where a name gives a salt, the structure may show the parent alone.

Series [1] has as its target T1, HPK1 protein (Homo sapiens, UniProt Q92918).
T1 construct: host or cells: Jurkat cells
The series is described as follows: Detection of HPK1 protein expression level in Jurkat cells (24 h). It counts as cell-based. As to conditions: 24 hours incubation. The essentials: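 Jurkat cells at 5 × 10^5 cells/well were exposed to compounds for 24 h at 37 °C, with vehicle medium containing 0.2% DMSO as control. HPK1 in lysates (0.2 mg/mL) was measured by automated quantitative immunoassay and normalized to β-actin. Degradation was expressed relative to vehicle, and DC50 came from four-parameter fits.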

Series [2] is described as follows: Pharmacokinetic test in mice. Conditions: mouse, plasma, po, i. g., 10 mg/kg. Format: in vivo, ICR mice. The essentials: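 Male ICR mice (20-35 g), fasted overnight and fed 4 h post-dose, received a single intravenous or intragastric dose. Orbital blood into EDTA-K2 tubes at 0–24 h; plasma quantified by LC-MS/MS to derive PK parameters and bioavailability.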
Series [3] has as its target T2, HPK1 kinase (Homo sapiens, UniProt Q92918).
T2 construct: purchased Carna 07-410
T2 sequence (Q92918 1-346 limits assumed): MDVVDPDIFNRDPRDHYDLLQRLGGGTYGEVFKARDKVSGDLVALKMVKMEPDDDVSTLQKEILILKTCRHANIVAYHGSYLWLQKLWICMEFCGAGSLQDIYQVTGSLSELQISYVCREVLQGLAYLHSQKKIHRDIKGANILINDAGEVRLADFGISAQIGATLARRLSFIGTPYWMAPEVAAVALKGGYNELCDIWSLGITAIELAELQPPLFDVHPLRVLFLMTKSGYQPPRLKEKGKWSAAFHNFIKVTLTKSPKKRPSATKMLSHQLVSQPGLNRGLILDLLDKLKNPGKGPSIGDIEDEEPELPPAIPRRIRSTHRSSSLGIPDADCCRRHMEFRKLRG
The series is described as follows: HPK1 kinase assay (Km concentration ATP). Format: biochemical. Conditions: for IC50: ATP at Km concentration (working concentration: 9 µM); for inhibitory activity against HPK1 kinase (in words): Km concentration ATP, conclusion. On the procedure:
Test example 3: HPK1 kinase assay (Km concentration ATP)
The kinase HPK1 (Carna, Cat.No 07-410) was prepared into 2× kinase solution using 1× kinase buffer. The substrate Fluorescein-PKC (Invitrogen, Cat. No. PV3506) and ATP (working concentration: 9 µM) (Sigma, Cat. No. 2383-5G) were prepared into 2× substrate solution using 1×kinase buffer. The detection reagent was diluted to 2-fold the final concentration using an antibody diluent. 100 nL of compounds at different concentrations and 5 µL of kinase solution were added to each well of a 384-well plate, and the mixture was incubated at room temperature for 10 minutes. After the incubation was completed, 5 µL of substrate solution was added to each well, and the resulting mixture was reacted at room temperature for 90 minutes. After the reaction was completed, 10 µL of detection reagent was added to each well to terminate the reaction, and the mixture was incubated at room temperature for 60 minutes. Fluorescence readings were detected using an Envision instrument with excitation at 320 nm and emission at 520 nm and 495 nm. IC50 value was calculated using XLFit excel add-in version 5.4.0.8 software. The calculation formula of the inhibition rate was shown in formula 3-1, where max is the Ratio of the DMSO control, min is the Ratio of the negative control without enzyme, and sample is the Ratio of the compound. Ratio = RFU520nm /RFU495nm [formula] Inhibition% = (max−sample)/(max−min) × 100% [formula] Table 3-1 Inhibitory activity of test compounds against HPK1 kinase

Series [4] has as its system IL-2 secretion by T cells. The series is described as follows: IL-2 detection assay in cells (ELISA, pan-T cells isolated from PBMCs). Format: cell-based. As to conditions: IL-2, CD3 antibody-coated plate, 24 hours. On the procedure: 9. IL-2 detection assay in cells
Activating effect of compounds on IL-2 secretion by T cells was evaluated using the ELISA method. Frozen PBMCs were thawed, and pan-T cells were isolated and purified using a T cell sorting kit (Stemcell, 17951). The cells were resuspended in 1640 complete medium and incubated in a 37°C&5%CO2 incubator overnight. A 96-well plate coated with an anti-human CD3 antibody (Thermo, 16-0037-38) at a final concentration of 5 µg/mL was incubated at 37°C for 2 h. The overnight-cultured cells were collected by centrifugation, the supernatant was discarded, and the cells were resuspended in 1640 complete medium, and seeded in the CD3 antibody-coated 96-well plate at a density of 10^5cells/well. The compounds at different concentrations were added, and the mixture was incubated in a 37°C&5%CO2 incubator for 24 hours. After the incubation was completed, the resulting mixture was centrifuged at 1000 rpm for 1 minute to collect the supernatant, and IL-2 was detected according to the ELISA instructions. DMSO without compounds was used as the control group to calculate the activation rate of the compounds, and prism was used to fit the activation curve. Maximum activation fold = maximum activation rate/control group. Table 9-1 Results of IL-2 activation by test compounds

The nature of series [5]: Pharmacokinetic test in rats. It counts as in vivo, SD rats. As to conditions: rat, plasma. As to the method: Test example 7: Pharmacokinetic test in rats
Experimental animals: Male SD rats, 180-200 g, purchased from Chengdu Dossy Experimental Animals Co., Ltd. with the laboratory animal production license number of SCXK (CHUAN) 2020-030.
Experimental design: on the day of the experiment, the SD rats were randomly grouped according to their body weights. The animals were fasted but with water available overnight before the administration, and fed 4 h after the administration.
Vehicle for intragastric administration: 5% Solutol+5% TPGS+30% PEG400+60% (20% SBE-β-CD)
Blood was taken from the orbits of the […] at specified time points, and placed in an EDTAK2 centrifuge tube. Centrifugation was performed at 5000 rpm for 10 min, and the plasma was collected.
Blood sampling time points for the intravenous administration group were: 0, 5 min, 15 min, 30 min, 1 h, 2 h, 4 h, 6 h, 8 h and 24 h; blood sampling time points for the intragastric administration group were: 0, 5 min, 15 min, 30 min, 1 h, 2 h, 4 h, 6 h, 8 h and 24 h. Before analysis and detection, all the samples were stored at - 60°C or lower. The samples were analysed quantitatively by LC-MS/MS. Table 7-1 PK data of test compound drug in rats

T1 sequence (Q92918 whole entry): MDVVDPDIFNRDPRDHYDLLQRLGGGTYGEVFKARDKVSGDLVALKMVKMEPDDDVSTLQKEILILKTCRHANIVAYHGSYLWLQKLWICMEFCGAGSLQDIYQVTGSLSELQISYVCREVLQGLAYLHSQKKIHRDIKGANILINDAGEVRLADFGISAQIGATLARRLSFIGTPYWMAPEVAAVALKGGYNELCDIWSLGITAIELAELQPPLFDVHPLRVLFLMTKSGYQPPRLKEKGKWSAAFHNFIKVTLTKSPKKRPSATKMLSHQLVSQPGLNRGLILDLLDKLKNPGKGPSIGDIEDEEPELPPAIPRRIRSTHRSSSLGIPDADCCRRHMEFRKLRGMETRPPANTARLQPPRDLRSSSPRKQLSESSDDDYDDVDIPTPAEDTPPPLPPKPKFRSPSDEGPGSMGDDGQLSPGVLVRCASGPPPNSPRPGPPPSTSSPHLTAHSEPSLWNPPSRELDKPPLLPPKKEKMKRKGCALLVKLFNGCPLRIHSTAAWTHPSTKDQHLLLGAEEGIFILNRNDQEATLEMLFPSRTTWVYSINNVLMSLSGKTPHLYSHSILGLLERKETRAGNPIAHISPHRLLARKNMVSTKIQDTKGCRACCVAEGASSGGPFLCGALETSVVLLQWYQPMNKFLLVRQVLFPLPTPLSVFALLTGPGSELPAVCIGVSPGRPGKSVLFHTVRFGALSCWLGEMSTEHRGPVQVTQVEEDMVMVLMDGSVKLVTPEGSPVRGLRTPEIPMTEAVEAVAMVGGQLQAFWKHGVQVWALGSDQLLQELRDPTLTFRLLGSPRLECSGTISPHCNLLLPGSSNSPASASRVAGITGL

In series [1], `O=C1CCC(c2ccc(N3CCN(CC4CCN(c5ccc(Nc6ccc(-c7cnc8cc(F)ccn78)c7c6C(=O)NC7)nc5)CC4)CC3)cc2F)C(=O)N1` (racemic) [Trifluoroacetic acid salt of compound 1] gave a DC50 of under 20 nM. Besides, in series [2], the AUC was 14700 ng·h/mL, the maximum concentration (Cmax) turned out to be 1070 ng/mL and the half-life was 6.73 h. Further, in series [3], the IC50 was under 10 nM and the “inhibitory activity against HPK1 kinase (in words)” value (from here on “inhibitory activity”) is “good inhibitory activity”.

Compound `O=C1CCN(c2cc3c(cc2F)N2CCN(CC4CCN(c5ccc(Nc6ccc(-c7cnc8cc(F)ccn78)c7c6C(=O)NC7)nc5)CC4)C[C@@H]2CC3)C(=O)N1` [Compound 5] yielded a DC50 in series [1] of under 20 nM. In series [2], this compound gave an exposure (AUC) of 20000 ng·h/mL, a Cmax of 1380 ng/mL and a half-life of 6.45 h. Further, in series [3], the IC50 was under 10 nM and the “inhibitory activity” value was “good inhibitory activity”.

Turning to `O=C1CCN(c2cc3c(cc2F)N2CCN(CC4CCN(c5ccc(Nc6ccc(-c7cnc8cc(F)ccn78)c7c6C(=O)NC7)nc5)CC4)C[C@H]2CC3)C(=O)N1` [Trifluoroacetic acid salt of compound 6], the DC50 in series [1] is under 20 nM. For the same compound, the “Activation fold at 100 nM concentration” value in series [4] (100 nM) is over 10. The compound further gave a Maximum activation fold in series [4] (maximum activation rate/control group) of over 10. For the same compound, in series [2], the exposure (AUC) worked out at 20800 ng·h/mL, the Cmax amounted to 1520 ng/mL and the half-life is 5.35 h. Further, in series [3], the IC50 is under 10 nM and the “inhibitory activity” value is “good inhibitory activity”. In series [5] (IV, 2.5 mg/kg), the clearance was determined as 9.78 mL/min/kg and the half-life is 6.58 h. In series [5] (po, i. g., 10 mg/kg), this compound showed an AUC of 8360 ng·h/mL, a Cmax of 721 ng/mL and a half-life of 6.4 h.

Regarding `O=C1CCN(c2ccc(N3CCN(CC4CCN(c5ccc(Nc6ccc(-c7cnc8cc(F)ccn78)c7c6C(=O)NC7)nc5)CC4)CC3)cc2F)C(=O)N1` [Trifluoroacetic acid salt of compound 2], the DC50 in series [1] is under 20 nM. In series [2], the area under the curve (AUC) worked out at 16800 ng·h/mL, the concentration peaked (Cmax) at 1280 ng/mL and the half-life was 5.79 h. For the same compound, in series [3], the IC50 is under 10 nM and the “inhibitory activity” value is recorded as “good inhibitory activity”.

`O=C1CCC(c2cc3c(cc2F)N2CCN(CC4CCN(c5ccc(Nc6ccc(-c7cnc8cc(F)ccn78)c7c6C(=O)NC7)nc5)CC4)C[C@H]2CC3)C(=O)N1` (stereo partly shown) [Trifluoroacetic acid salt of compound 3] returned a DC50 in series [1] of under 20 nM. Also, in series [3], the IC50 is under 10 nM and the “inhibitory activity” value is “good inhibitory activity”.

Take `O=C1CCC(c2cc3c(cc2F)N2CCN(CC4CCN(c5ccc(Nc6ccc(-c7cnc8cc(F)ccn78)c7c6C(=O)NC7)nc5)CC4)C[C@@H]2CC3)C(=O)N1` (stereo partly shown) [Trifluoroacetic acid salt of compound 4]: the DC50 in series [1] was under 20 nM. In series [2], this compound showed an AUC of 15200 ng·h/mL, a Cmax of 1140 ng/mL and a half-life of 7.27 h. Besides, in series [3], the IC50 is under 10 nM and the “inhibitory activity” value is given as “good inhibitory activity”.
